{"source": "patent US11241501B2", "about": "“Anticancer prodrug for overcoming drug resistance” (Korea University Research and Business Foundation, priority 2018, dated 2022)", "key": {"[1]": {"system": "cancer cells (A549 and HepG2), normal cells (NHDF and IMR90)", "test": "Cellular uptake of compounds in normal and cancer cells", "type": "cell-based, human", "settings": "5 μM, 6 h, A549, HepG2 vs NHDF", "method": "Cells were treated with 5 μM of each compound for 6 h. Fluorescence intensities were determined using SpectraMAX 13;\n(§1) To analyze the cellular fluorescence levels upon compound treatment, cells were seeded in plates 1 day before treatment with the compounds. Cells were then treated with each compound for the indicated dose or time course. After the experiment, cells were washed with ice-cold PBS, trypsinized, and centrifuged. The cell pellet was re-suspended in 300 μL of PBS and then analyzed using a multiplate reader (SpectraMAX I3x). The results were normalized according to the number of cells."}, "MCF7 and MCF7/Dox cells": {"system": "MCF7 and MCF7/Dox cells", "test": "Intracellular accumulation, fluorescence assay", "type": "cell-based, human", "settings": "up to 12 hr after treatment", "method": "Fluorescence intensities were measured with SpectraMAX 13. Data represent means±SD. **p<0.01. […] Data represent means±SD. **[…]. […] Data represent the mean±SD (n=3 experimental replicates). *p<0.05, **p<0.01. […] MCF7/Dox cells were treated with C1 or C3 as indicated, and the cytosolic (C) and mitochondrial (M) fractions were subjected to immunoblot assay. COX-IV and tubulin were used as markers for the mitochondria and cytosol fractions, respectively.\nMito-tracker (green) was utilized to show the mitochondria;\nas §1"}}}
{"smiles": "COc1cccc2c1C(=O)c1c(O)c3c(c(O)c1C2=O)C[C@@](O)(C(=O)CO)C[C@@H]3OC1C[C@H](NC(=O)OC(Cc2cn(CCCCCC[P+](c3ccccc3)(c3ccccc3)c3ccccc3)nn2)c2ccc(NC(=O)C(Cl)Cl)cc2)[C@H](O)[C@H](C)O1.[Br-]", "note": "(some centres unmarked) [C1]", "values": [{"measurement": "tumor cell selectivity of cellular uptake", "setting": "[1]", "value": "taken up specifically by cancer cells"}, {"measurement": "intracellular accumulation in MCF7/Dox versus MCF7", "setting": "MCF7 and MCF7/Dox cells", "value": "comparable level in both MCF7 and MCF7/Dox cells"}]}
